# Source: patent publication US5550212A, “Analogues of hGH-RH(1-29)NH2 having antagonistic activity” (The Administrators of the Tulane Educational Fund, priority 1993, dated 1996)
# Starred links: 1 amine or outer side, 2 acyl side, 3 side chain; linkers in the order of their positions; H or OH if unused. Non-standard residues stand in square brackets, D forms with d. Residues, ends and D or L forms follow the SMILES beside them. *: point of attachment. Acetyl(1-naphthyl) = O=C(Cc1cccc2ccccc12)*; Tpi = O=C(O)[C@@H]1Cc2c([nH]c3ccccc23)CN1; Phe(4-Cl) = N[C@@H](Cc1ccc(Cl)cc1)C(=O)O; Glutaryl = O=C(CCCC(=O)[*:2])[*:1]; Agmatine = N=C(N)NCCCCN*; Isobutyryl = CC(C)C(=O)*; Nle = CCCC[C@H](N)C(=O)O; Abu = CC[C@H](N)C(=O)O; Aib = CC(C)(N)C(=O)O; X2 = O=C(CI)*
# Molecular target: T1, rat pituitary GH-RH receptors (Rattus norvegicus, UniProt Q02644)
# T1 construct: from tissue; host or cells: rat anterior pituitary (male Sprague-Dawley), crude membranes
# T1 sequence (Q02644 23-464): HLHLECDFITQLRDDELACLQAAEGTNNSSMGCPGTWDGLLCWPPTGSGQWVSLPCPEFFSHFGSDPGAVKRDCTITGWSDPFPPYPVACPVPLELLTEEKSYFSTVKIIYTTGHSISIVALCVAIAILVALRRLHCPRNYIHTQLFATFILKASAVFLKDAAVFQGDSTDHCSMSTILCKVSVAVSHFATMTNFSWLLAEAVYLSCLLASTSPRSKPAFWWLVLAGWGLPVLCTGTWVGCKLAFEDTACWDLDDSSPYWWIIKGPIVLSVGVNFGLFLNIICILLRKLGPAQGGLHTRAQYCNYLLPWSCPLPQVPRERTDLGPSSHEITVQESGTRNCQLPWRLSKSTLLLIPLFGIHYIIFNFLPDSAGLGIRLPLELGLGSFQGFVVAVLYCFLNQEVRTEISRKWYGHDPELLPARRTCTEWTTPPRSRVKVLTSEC
# Assay: GH-RH binding assay, competitive binding on rat anterior pituitary membrane homogenates
# Details: competition with labelled [His1,Nle27]hGH-RH(1-32)NH2
# Protocol: GH-RH Binding Assay. A sensitive radioreceptor binding assay was developed to determine the binding characteristics of the antagonists of GH-RH (G. Halmos, A. V. Schally et al., Receptor 3, 87-97, 1993), hereby incorporated by reference. The assay is based on binding of labelled [His^1,Nle^27 ]hGH-RH(1-32)NH2 to rat anterior pituitary membrane homogenates. Iodinated derivatives of [His^1,Nle^27 ]hGH-RH(1-32)NH2 are prepared by the chloramine-T method (F. C. Greenwood et al., Biochemistry 89:114-123, 1963), hereby incorporated by reference. Pituitaries from male Sprague-Dawley rats (250-300 g) are used to prepare crude membranes. For saturation binding analyses, membrane homogenates are incubated with at least 6 concentrations of [His^1,^25 I-Tyr^10,Nle^27 ]hGH-RH(1-32)NH2, ranging from 0.005 to 0.35 nM in the presence or absence of excess unlabelled peptide (1 μM). The pellet is counted for radioactivity in a y-counter. The affinities of the antagonist peptides tested to rat pituitary GH-RH receptors are determined in competitive binding experiments. The final binding affinities are estimated by Ki (dissociation constant of the inhibitor-receptor complex) and are determined by the Ligand PC computer program of Munson and Rodbard as modified by McPherson. Relative affinities compared to [Ac-Tyr^1,D-Arg^2 ]hGH-RH(1-29)NH2, the Standard antagonist, are calculated as the ratio of Ki of the tested GH-RH antagonist to the Ki of the Standard antagonist.
row,Structure (SMILES),Ki
1,"CCCC[C@H](NC(=O)[C@@H](NC(=O)[C@H](CC(=O)O)NC(=O)[C@H](CCC(N)=O)NC(=O)[C@H](CC(C)C)NC(=O)[C@H](CC(C)C)NC(=O)[C@H](CCCCN)NC(=O)[C@H](CCCNC(=N)N)NC(=O)[C@H](C)NC(=O)[C@H](CO)NC(=O)[C@H](CC(C)C)NC(=O)[C@H](CCC(N)=O)NC(=O)[C@H](CC)NC(=O)[C@H](CC(C)C)NC(=O)[C@@H](NC(=O)[C@H](CCCCN)NC(=O)[C@H](CCCNC(=N)N)NC(=O)[C@H](Cc1ccc(O)cc1)NC(=O)[C@H](CO)NC(=O)C(C)(C)NC(=O)[C@@H](NC(=O)[C@H](Cc1ccccc1)NC(=O)[C@@H](NC(=O)[C@H](C)NC(=O)[C@H](CC(=O)O)NC(=O)[C@@H](CCCNC(=N)N)NC(=O)[C@H](Cc1ccc(O)cc1)NC(=O)C(C)C)[C@@H](C)CC)[C@@H](C)O)C(C)C)[C@@H](C)CC)C(=O)N[C@@H](CO)C(=O)N[C@@H](CCCNC(=N)N)C(N)=O [Peptide 13, [Ibu^0,D-Arg^2,Aib^8,Abu^15,Nle^27]hGH-RH(1-29)NH2] (Isobutyryl-Y[dR]DAIFT[Aib]SYRKVL[Abu]QLSARKLLQDI[Nle]SR-NH2)",0.78 ± 0.06 nM
2,"CCCC[C@H](NC(=O)[C@@H](NC(=O)[C@H](CC(=O)O)NC(=O)[C@H](CCC(N)=O)NC(=O)[C@H](CC(C)C)NC(=O)[C@H](CC(C)C)NC(=O)[C@H](CCCCN)NC(=O)[C@H](CCCNC(=N)N)NC(=O)[C@H](C)NC(=O)[C@H](CO)NC(=O)[C@H](CC(C)C)NC(=O)[C@H](CCC(N)=O)NC(=O)[C@H](CC)NC(=O)[C@H](CC(C)C)NC(=O)[C@@H](NC(=O)[C@H](C)NC(=O)[C@H](CCCNC(=N)N)NC(=O)[C@H](Cc1ccc(O)cc1)NC(=O)[C@H](CO)NC(=O)[C@H](CC(N)=O)NC(=O)[C@@H](NC(=O)[C@H](Cc1ccc(Cl)cc1)NC(=O)[C@@H](NC(=O)[C@H](C)NC(=O)[C@H](CC(=O)O)NC(=O)[C@@H](CCCNC(=N)N)NC(=O)[C@H](Cc1ccc(O)cc1)NC(=O)C(C)C)[C@@H](C)CC)[C@@H](C)O)C(C)C)[C@@H](C)CC)C(=O)N[C@@H](CO)C(=O)N[C@@H](CCCNC(=N)N)C(N)=O [Peptide 15, [Ibu^0,D-Arg^2,Phe(pCl)^6,Ala^12,Abu^15,Nle^27]hGH-RH(1-29)NH2] (Isobutyryl-Y[dR]DAI[Phe(4-Cl)]TNSYRAVL[Abu]QLSARKLLQDI[Nle]SR-NH2)",0.73 ± 0.05 nM
3,CCCC[C@H](NC(=O)[C@@H](NC(=O)[C@H](CC(=O)O)NC(=O)[C@H](CCC(N)=O)NC(=O)[C@H](CC(C)C)NC(=O)[C@H](CC(C)C)NC(=O)[C@H](CCCCN)NC(=O)[C@H](CCCNC(=N)N)NC(=O)[C@H](C)NC(=O)[C@H](CO)NC(=O)[C@H](CC(C)C)NC(=O)[C@H](CCC(N)=O)NC(=O)[C@H](CC)NC(=O)[C@H](CC(C)C)NC(=O)[C@@H](NC(=O)[C@H](CCCCN)NC(=O)[C@H](CCCNC(=N)N)NC(=O)[C@H](Cc1ccc(O)cc1)NC(=O)[C@H](CO)NC(=O)[C@H](CC(N)=O)NC(=O)[C@@H](NC(=O)[C@H](Cc1ccc(Cl)cc1)NC(=O)[C@@H](NC(=O)[C@H](C)NC(=O)[C@H](CC(=O)O)NC(=O)[C@@H](CCCNC(=N)N)NC(=O)[C@H](CCC(=O)O)NC(=O)Cc1cccc2ccccc12)[C@@H](C)CC)[C@@H](C)O)C(C)C)[C@@H](C)CC)C(=O)N[C@@H](CO)C(=O)N[C@@H](CCCNC(=N)N)C(N)=O [Peptide 9] ({Acetyl(1-naphthyl)}-E[dR]DAI[Phe(4-Cl)]TNSYRKVL[Abu]QLSARKLLQDI[Nle]SR-NH2),0.87 ± 0.1 nM
4,"CCCC[C@H](NC(=O)[C@@H](NC(=O)[C@H](CC(=O)O)NC(=O)[C@H](CCC(N)=O)NC(=O)[C@H](CC(C)C)NC(=O)[C@H](CC(C)C)NC(=O)[C@H](CCCCN)NC(=O)[C@H](CCCNC(=N)N)NC(=O)[C@H](C)NC(=O)[C@H](CO)NC(=O)[C@H](CC(C)C)NC(=O)[C@H](CCC(N)=O)NC(=O)[C@H](CC)NC(=O)[C@H](CC(C)C)NC(=O)[C@@H](NC(=O)[C@H](CCCCN)NC(=O)[C@H](CCCNC(=N)N)NC(=O)[C@H](Cc1ccc(O)cc1)NC(=O)[C@H](CO)NC(=O)[C@H](CC(N)=O)NC(=O)[C@@H](NC(=O)[C@H](Cc1ccc(Cl)cc1)NC(=O)[C@@H](NC(=O)[C@H](C)NC(=O)[C@H](CC(=O)O)NC(=O)[C@@H](CCCNC(=N)N)NC(=O)[C@H](Cc1ccc(O)cc1)NC(=O)C(C)C)[C@@H](C)CC)[C@@H](C)O)C(C)C)[C@@H](C)CC)C(=O)N[C@@H](CO)C(=O)NCCCCNC(=N)N [Peptide 19, Ibu^0,D-Arg^2, Phe(pCl)^6,Abu^15,Nle^27]hGH-RH(1-28)Agm] (Isobutyryl-Y[dR]DAI[Phe(4-Cl)]TNSYRKVL[Abu]QLSARKLLQDI[Nle]S-Agmatine)",0.12 ± 0.04 nM
5,"CCCC[C@H](NC(=O)[C@@H](NC(=O)[C@H](CC(=O)O)NC(=O)[C@H](CCC(N)=O)NC(=O)[C@H](CC(C)C)NC(=O)[C@H](CC(C)C)NC(=O)[C@H](CCCCN)NC(=O)[C@H](CCCNC(=N)N)NC(=O)[C@H](C)NC(=O)[C@H](CO)NC(=O)[C@H](CC(C)C)NC(=O)[C@H](CCC(N)=O)NC(=O)[C@H](CC)NC(=O)[C@H](CC(C)C)NC(=O)[C@@H](NC(=O)[C@H](CCCCN)NC(=O)[C@H](CCCNC(=N)N)NC(=O)[C@H](Cc1ccc(O)cc1)NC(=O)[C@H](CO)NC(=O)[C@H](CC(N)=O)NC(=O)[C@@H](NC(=O)[C@H](Cc1ccc(Cl)cc1)NC(=O)[C@@H](NC(=O)[C@H](C)NC(=O)[C@H](CC(=O)O)NC(=O)[C@@H](CCCNC(=N)N)NC(=O)[C@H](Cc1ccc(O)cc1)NC(=O)Cc1cccc2ccccc12)[C@@H](C)CC)[C@@H](C)O)C(C)C)[C@@H](C)CC)C(=O)N[C@@H](CO)C(=O)N[C@@H](CCCNC(=N)N)C(N)=O [Peptide 1, [Nac^0,D-Arg^2, Phe(pCl)^6,Abu^15, Nle^27]hGH-RH(1-29)NH2] ({Acetyl(1-naphthyl)}-Y[dR]DAI[Phe(4-Cl)]TNSYRKVL[Abu]QLSARKLLQDI[Nle]SR-NH2)",0.04 ± 0.01 nM
6,CCCC[C@H](NC(=O)[C@@H](NC(=O)[C@H](CC(=O)O)NC(=O)[C@H](CCC(N)=O)NC(=O)[C@H](CC(C)C)NC(=O)[C@H](CC(C)C)NC(=O)[C@H](CCCCN)NC(=O)[C@H](CCCNC(=N)N)NC(=O)[C@H](C)NC(=O)[C@H](CO)NC(=O)[C@H](CC(C)C)NC(=O)[C@H](CCC(N)=O)NC(=O)[C@H](CC)NC(=O)[C@H](CC(C)C)NC(=O)[C@@H](NC(=O)[C@H](CCCCN)NC(=O)[C@H](CCCNC(=N)N)NC(=O)[C@H](Cc1ccc(O)cc1)NC(=O)[C@H](CO)NC(=O)[C@H](CC(N)=O)NC(=O)[C@@H](NC(=O)[C@H](Cc1ccc(Cl)cc1)NC(=O)[C@@H](NC(=O)[C@H](C)NC(=O)[C@H](CC(=O)O)NC(=O)[C@@H](CCCNC(=N)N)NC(=O)[C@H](CCC(=O)O)NC(=O)CI)[C@@H](C)CC)[C@@H](C)O)C(C)C)[C@@H](C)CC)C(=O)N[C@@H](CO)C(=O)N[C@@H](CCCNC(=N)N)C(N)=O [Peptide 8] (X2-E[dR]DAI[Phe(4-Cl)]TNSYRKVL[Abu]QLSARKLLQDI[Nle]SR-NH2),0.91 ± 0.01 nM
7,"CCCC[C@H](NC(=O)[C@@H](NC(=O)[C@H](CC(=O)O)NC(=O)[C@H](CCC(N)=O)NC(=O)[C@H](CC(C)C)NC(=O)[C@H](CC(C)C)NC(=O)[C@H](CCCCN)NC(=O)[C@H](CCCNC(=N)N)NC(=O)[C@H](C)NC(=O)[C@H](CO)NC(=O)[C@H](CC(C)C)NC(=O)[C@H](CCC(N)=O)NC(=O)[C@H](CC)NC(=O)[C@H](CC(C)C)NC(=O)[C@@H](NC(=O)[C@H](CCCCN)NC(=O)[C@H](CCCNC(=N)N)NC(=O)[C@H](Cc1ccc(O)cc1)NC(=O)[C@H](CO)NC(=O)[C@H](CC(N)=O)NC(=O)[C@@H](NC(=O)[C@@H]1Cc2c([nH]c3ccccc23)CN1C(=O)[C@@H](NC(=O)[C@H](C)NC(=O)[C@H](CC(=O)O)NC(=O)[C@@H](CCCNC(=N)N)NC(=O)CCCC(=O)O)[C@@H](C)CC)[C@@H](C)O)C(C)C)[C@@H](C)CC)C(=O)N[C@@H](CO)C(=O)N[C@@H](CCCNC(=N)N)C(N)=O [Peptide 12, [Glt^1,D-Arg^2,Tpi^6,Abu^15,Nle^27]hGH-RH(1-29)NH2] (Glutaryl-[dR]DAI[Tpi]TNSYRKVL[Abu]QLSARKLLQDI[Nle]SR-NH2)",0.3 ± 0.15 nM
